Laboratory results published in publication PMC11571015, “Hybrids of Membrane-Translocating Antimicrobial Peptides Show Enhanced Activity through Membrane Permeabilization” (ACS Medicinal Chemistry Letters, 2024).
In brackets after ≈: the same amount, converted by molar mass.

Experiments:
E. coli = type: cell-based, E. coli (Top10 Strain); details: median MIC; microbroth dilution, 1:2 serial dilution 18.2 to 1.8x10-2 μM, 4 × 10^6 CFU/mL, 1 h 37°C in wash buffer pH 7.4, then TSB overnight (18-24 h), OD600; triplicate per plate; mixture: each peptide at the reported concentration
Protocol: (§1) Supplemental Information for Trevellin et al.
(§2) Peptide design and preparation […]
(§3) synthesized by GenScript (Piscataway, NJ) at >95% purity determined by HPLC and dissolved in DI water. Concentrations were measured by triplicate tryptophan absorbance readings at 280 nm (ε=5700 M–1cm–1, l=1 cm) using a ThermoScientific NanoDrop 2000 (Waltham, MA). Buforin II (BF2) included an F10W mutation used in many previous studies1-5 to allow for concentration measurements.
(§4) Bacteria included E. coli (Top10 Strain, Invitrogen/ThermoFisher) containing a plasmid for ampicillin resistance (Novagen) and/or B. subtilis (ATCC #6051). Bacterial growth was performed in TSB (trypticase soy broth) prepared at 3% w/v (30 g of media in 1 L) from BD Difco unless otherwise noted. Overnight cultures were picked from petri dishes or frozen stock and grown for 14-16 hours at 37 °C in TSB with shaking. E. coli overnight cultures were incubated with 25 μg/mL ampicillin. The overnight cultures were then diluted 1:100 in 25 mL TSB and incubated at 37 °C with shaking for 2.5 h. The culture was pelleted via centrifugation at 1500×g for 10 min at room temperature and resuspended in sterile cold wash buffer (10 mM sodium phosphate buffer and 10 mM sodium chloride, pH 7.4). These resuspended bacteria were then used for radial diffusion, microbroth dilution, and propidium iodide assays. […]
(§5) Microbroth dilution assay
(§6) Microbroth dilution assays were used to determine the minimum inhibitory concentration (MIC) of each peptide for E. coli and B. subtilis (ATCC #6051). A 1:2 serial dilution was prepared for a peptide across the top row of a 96-well plate. 100 μL of bacterial suspension (4 × 10^6 CFU/mL, diluted in sterile wash buffer, 10 mM sodium phosphate buffer and 10 mM sodium chloride, pH 7.4) and 10 μL of peptide were mixed to each well in subsequent rows of the plate. The 11 effective peptide concentrations ranged from 18.2 μM to 1.8x10-2 μM, with DI water used as a control, and each concentration was tested in triplicate per plate. After the bacteria and peptide mixtures were incubated in plates at 37°C for 1 hour, 100 μL of 6% w/v TSB was added to each well. For wells containing E. coli, ampicillin was added at a final concentration of 25 µg/ml. The plate was then incubated overnight (18-24 h) at 37°C. After incubation, OD600nm were measured using the SpectraMax M3 microplate reader (Molecular Devices). […]
(§7) relative permeability = F5/F0
(§8) Each peptide was tested with bacteria grown from at least three distinct overnight […]
(§9) The MTS assay is a colorimetric viability assay for mammalian cells. HEK 293 cells (ATCC CRL-1573) were grown in complete growth medium (EMEM, 10% fetal bovine serum, 1% penicillin-streptomycin). Cells were cultured in a T-75 maintenance flask, fed with fresh media every 1-2 days, and passaged approximately every 5-7 days once cells reached 70-90% confluence. During passaging, HEK 293 cells were plated in a 96-well plate at 20,000 cells/well and incubated for 4-6 hours (37 °C, 95% humidity, 5% CO2). Each column of cells (8 replicates) was then incubated overnight with 18.2 µM peptide or a control. After incubation, media was aspirated and refreshed for each well, […]

B. subtilis = type: cell-based, B. subtilis (ATCC #6051); details: 1 h, pH 7.4
Protocol: as §1, §2, §3, §4, §5, §6, §7, §8, §9

CC[C@H](C)[C@H](NC(=O)[C@H](CCCNC(=N)N)NC(=O)[C@@H](NC(=O)[C@H](CCCCN)NC(=O)[C@H](CCCCN)NC(=O)[C@H](CC(N)=O)NC(=O)[C@H](CC(=O)O)NC(=O)[C@H](CCCNC(=N)N)NC(=O)[C@H](C)NC(=O)[C@H](C)NC(=O)[C@H](CCCCN)NC(=O)[C@H](CCCNC(=N)N)NC(=O)[C@H](CC(C)C)NC(=O)[C@H](CC(C)C)NC(=O)[C@H](CCCNC(=N)N)NC(=O)[C@H](Cc1c[nH]cn1)NC(=O)[C@@H](NC(=O)[C@H](CCCNC(=N)N)NC(=O)CNC(=O)[C@@H](NC(=O)[C@@H]1CCCN1C(=O)[C@H](Cc1c[nH]c2ccccc12)NC(=O)[C@H](CCC(N)=O)NC(=O)[C@H](CC(C)C)NC(=O)CNC(=O)[C@H](C)NC(=O)[C@H](CCCNC(=N)N)NC(=O)[C@H](CO)NC(=O)[C@H](CO)NC(=O)[C@H](CCCNC(=N)N)NC(=O)[C@@H](N)[C@@H](C)O)C(C)C)C(C)C)[C@@H](C)O)C(=O)N[C@@H](Cc1c[nH]c2ccccc12)C(=O)N1CCC[C@H]1C(=O)N[C@@H](CCCNC(=N)N)C(=O)N[C@@H](Cc1c[nH]cn1)C(=O)N[C@@H](CC(C)C)C(=O)N[C@@H](CCC(N)=O)C(=O)N[C@@H](CC(C)C)C(=O)N[C@@H](C)C(=O)N[C@H](C(=O)N[C@@H](CCCNC(=N)N)C(=O)N[C@@H](CC(N)=O)C(=O)O)C(C)C [BF2-A-DesHDAP1 (BAD)]
MIC against E. coli (E. coli): 1.1 µM (≈ 5.5 µg/mL)
MIC against B. subtilis (B. subtilis): 4.6 µM (≈ 23 µg/mL)

CC[C@H](C)[C@H](NC(=O)[C@H](CCCNC(=N)N)NC(=O)[C@@H](NC(=O)[C@H](CCCCN)NC(=O)[C@H](CCCCN)NC(=O)[C@H](CC(N)=O)NC(=O)[C@H](CC(=O)O)NC(=O)[C@H](CCCNC(=N)N)NC(=O)[C@H](C)NC(=O)[C@H](CCCCN)NC(=O)[C@H](CCCNC(=N)N)NC(=O)[C@H](CC(C)C)NC(=O)[C@H](CC(C)C)NC(=O)[C@H](CCCNC(=N)N)NC(=O)[C@H](Cc1c[nH]cn1)NC(=O)[C@@H](NC(=O)[C@H](CCCNC(=N)N)NC(=O)CNC(=O)[C@@H](NC(=O)[C@@H]1CCCN1C(=O)[C@H](Cc1c[nH]c2ccccc12)NC(=O)[C@H](CCC(N)=O)NC(=O)[C@H](CC(C)C)NC(=O)CNC(=O)[C@H](C)NC(=O)[C@H](CCCNC(=N)N)NC(=O)[C@H](CO)NC(=O)[C@H](CO)NC(=O)[C@H](CCCNC(=N)N)NC(=O)[C@@H](N)[C@@H](C)O)C(C)C)C(C)C)[C@@H](C)O)C(=O)N[C@@H](Cc1c[nH]c2ccccc12)C(=O)N1CCC[C@H]1C(=O)N[C@@H](CCCNC(=N)N)C(=O)N[C@@H](Cc1c[nH]cn1)C(=O)N[C@@H](CC(C)C)C(=O)N[C@@H](CCC(N)=O)C(=O)N[C@@H](CC(C)C)C(=O)N[C@@H](C)C(=O)N[C@H](C(=O)N[C@@H](CCCNC(=N)N)C(=O)N[C@@H](CC(N)=O)C(=O)O)C(C)C [BF2-DesHDAP1 (BD)]
MIC against E. coli (E. coli): 1.1 µM (≈ 5.42 µg/mL)
MIC against B. subtilis (B. subtilis): 4.6 µM (≈ 22.7 µg/mL)

CC[C@H](C)[C@H](NC(=O)[C@H](CCCNC(=N)N)NC(=O)[C@@H](NC(=O)[C@H](CCCCN)NC(=O)[C@H](CCCCN)NC(=O)[C@H](CC(N)=O)NC(=O)[C@H](CC(=O)O)NC(=O)[C@H](CCCNC(=N)N)NC(=O)[C@H](C)NC(=O)[C@@H]1CCCN1C(=O)[C@H](CCCCN)NC(=O)[C@H](CCCNC(=N)N)NC(=O)[C@H](CC(C)C)NC(=O)[C@H](CC(C)C)NC(=O)[C@H](CCCNC(=N)N)NC(=O)[C@H](Cc1c[nH]cn1)NC(=O)[C@@H](NC(=O)[C@H](CCCNC(=N)N)NC(=O)CNC(=O)[C@@H](NC(=O)[C@@H]1CCCN1C(=O)[C@H](Cc1c[nH]c2ccccc12)NC(=O)[C@H](CCC(N)=O)NC(=O)[C@H](CC(C)C)NC(=O)CNC(=O)[C@H](C)NC(=O)[C@H](CCCNC(=N)N)NC(=O)[C@H](CO)NC(=O)[C@H](CO)NC(=O)[C@H](CCCNC(=N)N)NC(=O)[C@@H](N)[C@@H](C)O)C(C)C)C(C)C)[C@@H](C)O)C(=O)N[C@@H](Cc1c[nH]c2ccccc12)C(=O)N1CCC[C@H]1C(=O)N[C@@H](CCCNC(=N)N)C(=O)N[C@@H](Cc1c[nH]cn1)C(=O)N[C@@H](CC(C)C)C(=O)N[C@@H](CCC(N)=O)C(=O)N[C@@H](CC(C)C)C(=O)N[C@@H](C)C(=O)N[C@H](C(=O)N[C@@H](CCCNC(=N)N)C(=O)N[C@@H](CC(N)=O)C(=O)O)C(C)C [BF2-P-DesHDAP1 (BPD)]
MIC against E. coli (E. coli): 1.1 µM (≈ 5.53 µg/mL)
MIC against B. subtilis (B. subtilis): 4.6 µM (≈ 23.1 µg/mL)

CC(C)C[C@H](NC(=O)CNC(=O)[C@H](C)NC(=O)[C@H](CCCNC(=N)N)NC(=O)[C@H](CO)NC(=O)[C@H](CO)NC(=O)[C@H](CCCNC(=N)N)NC(=O)[C@@H](N)[C@@H](C)O)C(=O)N[C@@H](CCC(N)=O)C(=O)N[C@@H](Cc1c[nH]c2ccccc12)C(=O)N1CCC[C@H]1C(=O)N[C@H](C(=O)NCC(=O)N[C@@H](CCCNC(=N)N)C(=O)N[C@H](C(=O)N[C@@H](Cc1c[nH]cn1)C(=O)N[C@@H](CCCNC(=N)N)C(=O)N[C@@H](CC(C)C)C(=O)N[C@@H](CC(C)C)C(=O)N[C@@H](CCCNC(=N)N)C(=O)N[C@@H](CCCCN)C(=O)O)C(C)C)C(C)C [Buforin II (BF2), reference compound]
MIC against E. coli (E. coli): >18.2 µM

CC[C@H](C)[C@H](NC(=O)[C@H](CCCNC(=N)N)NC(=O)[C@@H](NC(=O)[C@H](CCCCN)NC(=O)[C@H](CCCCN)NC(=O)[C@H](CC(N)=O)NC(=O)[C@H](CC(=O)O)NC(=O)[C@H](CCCNC(=N)N)NC(=O)[C@H](C)N)[C@@H](C)O)C(=O)N[C@@H](Cc1c[nH]c2ccccc12)C(=O)N1CCC[C@H]1C(=O)N[C@@H](CCCNC(=N)N)C(=O)N[C@@H](Cc1c[nH]cn1)C(=O)N[C@@H](CC(C)C)C(=O)N[C@@H](CCC(N)=O)C(=O)N[C@@H](CC(C)C)C(=O)N[C@@H](C)C(=O)N[C@H](C(=O)N[C@@H](CCCNC(=N)N)C(=O)N[C@@H](CC(N)=O)C(=O)N[C@@H](C)C(=O)N[C@H](C(=O)N[C@@H](CCCNC(=N)N)C(=O)N[C@@H](CO)C(=O)N[C@@H](CO)C(=O)N[C@@H](CCCNC(=N)N)C(=O)N[C@@H](C)C(=O)NCC(=O)N[C@@H](CC(C)C)C(=O)N[C@@H](CCC(N)=O)C(=O)N[C@@H](Cc1c[nH]c2ccccc12)C(=O)N1CCC[C@H]1C(=O)N[C@H](C(=O)NCC(=O)N[C@@H](CCCNC(=N)N)C(=O)N[C@H](C(=O)N[C@@H](Cc1c[nH]cn1)C(=O)N[C@@H](CCCNC(=N)N)C(=O)N[C@@H](CC(C)C)C(=O)N[C@@H](CC(C)C)C(=O)N[C@@H](CCCNC(=N)N)C(=O)N[C@@H](CCCCN)C(=O)O)C(C)C)C(C)C)[C@@H](C)O)C(C)C [DesHDAP1-A-BF2 (DAB)]
MIC against E. coli (E. coli): 1.1 µM (≈ 5.5 µg/mL)
MIC against B. subtilis (B. subtilis): 4.6 µM (≈ 23 µg/mL)

CC[C@H](C)[C@H](NC(=O)[C@H](CCCNC(=N)N)NC(=O)[C@@H](NC(=O)[C@H](CCCCN)NC(=O)[C@H](CCCCN)NC(=O)[C@H](CC(N)=O)NC(=O)[C@H](CC(=O)O)NC(=O)[C@H](CCCNC(=N)N)NC(=O)[C@H](C)N)[C@@H](C)O)C(=O)N[C@@H](Cc1c[nH]c2ccccc12)C(=O)N1CCC[C@H]1C(=O)N[C@@H](CCCNC(=N)N)C(=O)N[C@@H](Cc1c[nH]cn1)C(=O)N[C@@H](CC(C)C)C(=O)N[C@@H](CCC(N)=O)C(=O)N[C@@H](CC(C)C)C(=O)N[C@@H](C)C(=O)N[C@H](C(=O)N[C@@H](CCCNC(=N)N)C(=O)N[C@@H](CC(N)=O)C(=O)N[C@H](C(=O)N[C@@H](CCCNC(=N)N)C(=O)N[C@@H](CO)C(=O)N[C@@H](CO)C(=O)N[C@@H](CCCNC(=N)N)C(=O)N[C@@H](C)C(=O)NCC(=O)N[C@@H](CC(C)C)C(=O)N[C@@H](CCC(N)=O)C(=O)N[C@@H](Cc1c[nH]c2ccccc12)C(=O)N1CCC[C@H]1C(=O)N[C@H](C(=O)NCC(=O)N[C@@H](CCCNC(=N)N)C(=O)N[C@H](C(=O)N[C@@H](Cc1c[nH]cn1)C(=O)N[C@@H](CCCNC(=N)N)C(=O)N[C@@H](CC(C)C)C(=O)N[C@@H](CC(C)C)C(=O)N[C@@H](CCCNC(=N)N)C(=O)N[C@@H](CCCCN)C(=O)O)C(C)C)C(C)C)[C@@H](C)O)C(C)C [DesHDAP1-BF2 (DB)]
MIC against E. coli (E. coli): 1.1 µM (≈ 5.42 µg/mL)
MIC against B. subtilis (B. subtilis): 4.6 µM (≈ 22.7 µg/mL)
